We go through two compounds from patent US20070110743A1, “Methods of protein production using anti-senescence compounds” (Wyeth, priority 2005, published 2007).

For data set [1], the system named is MYO-29 cell line. The experiment in a line: Carnosine addition to 1 L fed-batch bioreactor cell culture (Example 2). Type of data set: cell-based. The note with it: 20 mM carnosine added day 4. How it is done: Five bioreactors were inoculated with 0.9×10^6 cells/ml with a 1 L working volume of a MYO-29 cell line in a serum free inoculation medium. All the bioreactors were fed 5% (v/v) of a feed medium on days 3, 5, 7, and 12 of a 14-day run. A day 10 feed of 5% (v/v) of the feed medium was added to two of the control bioreactors and one containing carnosine. The conditions of the bioreactors were held at a temperature of 37° C., a pH of 7.00, and a dissolved oxygen level at 30% air saturation.
The bioreactors were harvested on day 14 of the production run. Samples were taken throughout the run to monitor the progress of the cell culture medium. The controls performed as expected.

In data set [2] the test system is MYO-29 cell line. The experiment in a line: Different concentrations of carnosine in 1 L bioreactor cell culture (Example 3). The data set is classed as cell-based. The procedure:
Four bioreactors were inoculated with 0.4×10^6 cells/ml with a 1 L working volume of a MYO-29 cell line in a serum free inoculation medium. All the bioreactors were all fed 5% (v/v) of a feed medium on day 7 of the 14-day run. The conditions of the bioreactor were held at a temperature of 37° C., a pH of 7.00, and a dissolved oxygen level at 30% air saturation.
All cells were cultured for four days at which point the temperature was shifted in all of the bioreactors to 31° C. […] All bioreactors were harvested on day 12 of the production run. Samples were taken throughout the run to monitor the progress of the cell culture medium. The controls performed generally as expected, except one control had slightly lower daily viabilities than previously seen.

Data set [3] has as its system human diploid fibroblasts and human fetal lung (primary cell lines). The note with it: concentration of 20 mM in culture media; cited from earlier work.
Data set [4] has as its system human or rodent transformed and neoplastic cells. To be noted: cited from earlier work.
The conditions of data set [5]: addition of the chemical agent to the culture; cited from earlier work.

For `NCCC(=O)N[C@@H](Cc1cnc[nH]1)C(=O)O` [carnosine], the “cumulative specific cellular productivity” value was “better” in the data set with MYO-29 cell line [1] (14-day run) and “higher” with MYO-29 cell line [2] (40 mM carnosine added day 4). Also, in the data set with MYO-29 cell line [1] (harvest day 14), the “daily titer at the time of harvest” value is “higher titer”. In addition, the “daily cell viability upon being harvested” value was “higher” in the data set with MYO-29 cell line [1] (harvest day 14, compared to bioreactors without carnosine) and “higher viability” in the data set on MYO-29 cell line [2] (20 mM or 40 mM carnosine added day 4, harvest day 12, compared to two control bioreactors). For the same compound, the daily titer entry with MYO-29 cell line [2] (20 mM or 40 mM carnosine added day 4, compared with one of the controls) is “similar”. For the same compound, the “daily viable cell density” value in the data set on MYO-29 cell line [2] (20 mM or 40 mM carnosine added day 4, versus controls) is given as “fairly similar with the exception of the bioreactor with 4 mM of carnosine”. In data set [3], the lifespan of cells entry is recorded as “extend the lifespan”. Further, the cytotoxic effects result in data set [4] (dialyzed fetal calf serum with low molecular weight compounds removed) is listed as “increased the cytotoxic effects”. The cytotoxicity result in data set [4] (in Minimal Essential Medium (MEM), lower glucose levels) was “cytotoxic”.
Turning to `CCCC(=O)[O-].[Na+]` [sodium butyrate], the “cell growth and viable cell number” value in data set [5] is “cell growth ceases and the viable cell number decreases”.
